The test system of data set [1] is M. tuberculosis wild-type strain. The experiment in a line: MIC against wild-type M. tuberculosis. The class given is cell-based, Mycobacterium tuberculosis. Conditions: concentration required to inhibit growth by 90%, 5 days culture.
In data set [2] the test system is M. tuberculosis strain under expressing LepB (LepB-UE). The experiment in a line: microbe, parasite or virus in culture. The class given is cell-based, Mycobacterium tuberculosis.
The target of data set [3] is CYP2C9 (Homo sapiens, UniProt P11712). The experiment in a line: biochemical. How it is done: Table S4. Inhibition of cytochrome P450s.
Chain of CYP2C9 (P11712 whole entry, canonical isoform): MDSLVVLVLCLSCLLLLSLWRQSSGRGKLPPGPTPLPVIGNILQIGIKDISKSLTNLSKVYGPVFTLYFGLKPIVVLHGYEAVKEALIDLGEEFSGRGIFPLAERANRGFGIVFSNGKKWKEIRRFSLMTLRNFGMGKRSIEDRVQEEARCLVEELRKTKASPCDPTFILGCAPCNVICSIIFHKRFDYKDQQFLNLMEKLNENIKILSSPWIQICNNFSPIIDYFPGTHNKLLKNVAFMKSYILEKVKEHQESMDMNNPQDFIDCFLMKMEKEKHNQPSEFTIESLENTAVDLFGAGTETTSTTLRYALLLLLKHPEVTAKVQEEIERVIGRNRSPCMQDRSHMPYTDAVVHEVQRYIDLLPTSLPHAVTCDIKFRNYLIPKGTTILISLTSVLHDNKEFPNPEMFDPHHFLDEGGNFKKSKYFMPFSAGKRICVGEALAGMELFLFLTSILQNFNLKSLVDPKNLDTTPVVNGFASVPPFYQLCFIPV
Compounds were tested for inhibition of P450s using the enzyme substrate pairs and conditions noted. IC50s (µM) were calculated. Control P450 inhibitors were included for each isoform. […]
Serial dilutions of a 10 mM stock solution were prepared in acetonitrile:DMSO (9:1). The final DMSO concentration was < 0.2%. Compounds were incubated with human liver microsomes in the presence of 2 mM NADPH in 100 mM potassium phosphate (pH 7.4) containing 5 mM magnesium chloride and a probe substrate, in a 200 µl assay final volume in duplicate. The probe substrate concentrations including bupropion (CYP2B6), amodiaquine (CYP2C8), tolbutamide (CYP2C9), mephenytoin (CYP2C19), dextromethorphan (CYP2D6) and midazolam/testosterone […]
After incubation at 37 °C, reactions were terminated by addition of methanol containing internal standard (propranolol) for analytical quantification. The quenched samples were kept on ice for 10 min and centrifuged at 4 °C for 10 min. The supernatant was removed and the probe substrate metabolite was analyzed by LC-MS/MS (Agilent Technologies Triple Quad LC/MS). A decrease in the formation of the metabolite compared to vehicle control

Data set [4] in a line: Plasma protein binding (Rapid Equilibrium Dialysis). The class given is in vitro ADME, human. Conditions: human; for fraction unbound at 4 h, 5 µM: plasma. Here is the method:
Molecule fraction fraction Post-Assay
Table S5. Plasma protein binding
Protein binding was measured in human plasma using Rapid Equilibrium Dialysis (RED) devices (Pierce) according to the manufacturers’ instructions; 5 µM compounds in plasma were dialysed against PBS for 4 h at 37C. Compounds were detected by LC-MS/MS in plasma and PBS
In general terms: In equilibrium dialysis only unbound substance equilibrates across the membrane.

The test system of data set [5] is RAW 264.7 macrophages. The experiment in a line: Cytotoxicity against infected macrophages. The class given is cell-based, murine. Particulars: Mus musculus; infected RAW264:7 cells, 72 h; read-out: IC50 Macrophage.
Data set [6] concerns nonreplicating M. tuberculosis. The experiment in a line: Kill kinetics, nonreplicating (nutrient starved) bacteria. The class given is cell-based, Mycobacterium tuberculosis. Conditions: nutrient starvation, PBS-tyloxapol.
Data set [7] has as its target SPase activity in M. tuberculosis H37Rv cell membrane fractions (Mycobacterium tuberculosis, UniProt P9WKA1). The experiment in a line: Inhibition of secretion (SPase activity) in membrane fractions. Conditions: fluorogenic peptide substrate 2 μM; 4 h, 37 °C. The class given is biochemical.
Setting [8] is: Mean plasma fraction Unbound Fuplasma.

In brackets after ≈: the same amount, converted by molar mass. Bounds are passed on as bounds.

Chain of SPase activity in M. tuberculosis H37Rv cell membrane fractions (P9WKA1 whole entry): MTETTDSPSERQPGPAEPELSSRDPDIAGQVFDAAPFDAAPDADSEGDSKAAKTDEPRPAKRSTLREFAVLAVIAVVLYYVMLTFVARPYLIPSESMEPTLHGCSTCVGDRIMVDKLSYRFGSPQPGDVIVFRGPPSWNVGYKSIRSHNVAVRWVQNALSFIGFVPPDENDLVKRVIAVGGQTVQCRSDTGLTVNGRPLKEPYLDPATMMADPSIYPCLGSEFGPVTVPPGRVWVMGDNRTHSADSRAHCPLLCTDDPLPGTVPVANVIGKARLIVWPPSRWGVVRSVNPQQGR

Regarding `CCCCNC(=S)Nc1nc(C)co1` [Molecule 21, 1-butyl-3-(4-methyloxazol-2-yl)thiourea], the MIC was 10 µM (≈ 2.13 µg/mL) in data set [1] (Mycobacterium tuberculosis, 120 h, read-out: MIC Wild type) and 8 to 9 µM (≈ 1.71 to 1.92 µg/mL) in data set [2] (Mycobacterium tuberculosis, 120 h). In addition, the “MIC Wild type” value in data set [1] worked out at 10 ± 2.0 µM (≈ 2.13 µg/mL). Moreover, the “MIC LepB-UE” value in data set [2] was 8.4 ± 3.4 µM (≈ 1.79 µg/mL). Besides, the IC50 in data set [3] is more than 20 µM; in data set [5], 6 ± 1 µM. The compound further returned a recovery at 4 h, 5 µM in data set [4] of 83.9%. Moreover, the fraction unbound at 4 h, 5 µM in data set [4] (Mean plasma fraction Bound) and in data set [4] (setting [8]) was 0.037 each time.

On to `CCCCNC(=S)Nc1nc2ccccc2s1` [Molecule 1, 1-(benzo[d]thiazol-2-yl)-3-butylthiourea], for which the IC50 in data set [3] was more than 20 µM; in data set [7], more than 200 µM; in data set [5], more than 100 µM. The “concentration giving sterilization of nonreplicating organisms” value in data set [6] was found to be 20 µM. In data set [4], this compound had a recovery at 4 h, 5 µM of 84.3%. The fraction unbound at 4 h, 5 µM in data set [4] (Mean plasma fraction Bound) and in data set [4] (setting [8]) was 0.001 throughout.

As a reminder, the IC50 is the point on the concentration scale where inhibition reaches its midpoint. As a reminder, the fraction unbound is the share of the substance not bound to proteins or other matrix. A high value points to weak binding.

The values above are taken from PMC9927457 (Microbiology Spectrum, 2023).
